From patent US10745382B2 (BRISTOL-MYERS SQUIBB COMPANY, priority 2015, dated 2020)

Target: T1, PD-1/PD-L1 (Homo sapiens, UniProt Q9NZQ7)
T1 construct: made in house; host or cells: HEK293T
Assay: PD-1/PD-L1 Homogenous Time-Resolved Fluorescence (HTRF) binding assay
Conditions: PD-L1-His 10 nM, PD-1-Ig 20 nM; value given as range class; read-out: Range or IC50
Procedure: The ability of the compounds of formula (I) to bind to PD-L1 was investigated using a PD-1/PD-L1 Homogenous Time-Resolved Fluorescence (HTRF) binding assay.
Homogenous Time-Resolved Fluorescence (HTRF) Binding Assay.
All binding studies were performed in an HTRF assay buffer consisting of dPBS supplemented with 0.1% […] bovine serum albumin and 0.05% (v/v) Tween-20. […] HTRF detection was achieved using europium crypate-labeled anti-Ig (1 nM final) and allophycocyanin (APC) labeled anti-His (20 nM final). Antibodies were diluted in HTRF detection buffer and 5 μl was dispensed on top of the binding reaction. […] Additional binding assays were established between the human proteins PD-1-Ig/PD-L2-His (20 & 5 nM, respectively) and CD80-His/PD-L1-Ig (100 & 10 nM, respectively). […]

T1 sequence (Q9NZQ7 with tags, fused parts or gaps): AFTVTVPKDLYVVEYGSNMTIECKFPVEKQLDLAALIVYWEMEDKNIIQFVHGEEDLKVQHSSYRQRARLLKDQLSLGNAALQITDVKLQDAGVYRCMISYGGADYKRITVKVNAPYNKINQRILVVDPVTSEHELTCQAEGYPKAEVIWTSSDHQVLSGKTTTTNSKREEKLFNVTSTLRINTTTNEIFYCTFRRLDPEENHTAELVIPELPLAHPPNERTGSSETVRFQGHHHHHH

| Structure (SMILES) | IC50 [nM] |
| --- | --- |
| Cc1c(COc2cc(OCc3cncc(C#N)c3)c(CN3CCCC[C@H]3C(=O)O)cc2Cl)cccc1-c1cccc(OCCCN2CCC(N3CCOCC3)CC2)c1C [Example 2248, (2S)-1-(5-chloro-2-((5-cyanopyridin-3-yl)methoxy)-4-((2,2′-dimethyl-3′-(3-(4-morpholinopiperidin-1-yl)propoxy)biphenyl-3-yl)methoxy)benzyl)piperidine-2-carboxylic Acid] | 0.21 to 10 |
| Cc1c(COc2cc(OCc3cncc(C#N)c3)c(CNC(CO)CO)cc2Cl)cccc1-c1cccc(OCCCNC[C@H](O)CO)c1C [Example 2293, (S)-5-((4-chloro-2-(((1,3-dihydroxypropan-2-yl)amino)methyl)-5-((3′-(3-((2,3-dihydroxypropyl)amino)propoxy)-2,2′-dimethyl-[1,1′-biphenyl]-3-yl)methoxy)phenoxy)methyl)nicotinonitrile] | 0.21 to 10 |
| Cc1c(COc2cc(OCc3cncc(C#N)c3)c(CN(C)C(CO)CO)cc2Cl)cccc1-c1cccc(OCCCNC[C@H](O)CO)c1Cl [Example 2057, (S)-5-((4-chloro-5-((2′-chloro-3′-(3-((2,3-dihydroxypropyl)amino)propoxy)-2-methyl-[1,1′-biphenyl]-3-yl)methoxy)-2-(((1,3-dihydroxypropan-2-yl)(methyl)amino)methyl)phenoxy)methyl)nicotinonitrile] | 0.21 to 10 |
| Cc1cc(OCc2cccc(-c3cccc(OCCCN4CC[C@@H](O)C4)c3C)c2C)cc(OCc2cncc(C#N)c2)c1CNC(CO)(CO)CO [Example 4089, (R)-5-((2-(((1,3-dihydroxy-2-(hydroxymethyl)propan-2-yl)amino)methyl)-5-((3′-(3-(3-hydroxypyrrolidin-1-yl)propoxy)-2,2′-dimethyl-[1,1′-biphenyl]-3-yl)methoxy)-3-methylphenoxy)methyl)nicotinonitrile] | 0.21 to 10 |
| Cc1c(COc2cc(OCc3cncc(C#N)c3)c(CN[C@](C)(CO)C(=O)O)cc2Cl)cccc1-c1cccc(OCCCN2CCC[C@H](C(=O)O)C2)c1Cl [Example 2008, (S)-1-(3-((3′-((4-((((R)-2-carboxy-1-hydroxypropan-2-yl)amino)methyl)-2-chloro-5-((5-cyanopyridin-3-yl)methoxy)phenoxy)methyl)-2-chloro-2′-methyl-[1,1′-biphenyl]-3-yl)oxy)propyl)piperidine-3-carboxylic Acid] | 0.21 to 10 |

Continued, values first:

| IC50 [nM] | Structure (SMILES) |
| --- | --- |
| 0.21 to 10 | CC(=O)N[C@@H]1CCN(CCCOc2cccc(-c3cccc(COc4cc(OCc5cncc(C#N)c5)c(CO)cc4Cl)c3C)c2C)C1 [Example 2276, N-((3R)-1-(3-(3′-((2-chloro-5-((5-cyanopyridin-3-yl)methoxy)-4-(hydroxymethyl)phenoxy)methyl)-2,2′-dimethylbiphenyl-3-yloxy)propyl)pyrrolidin-3-yl)acetamide] |
| 0.21 to 10 | Cc1c(COc2cc(OCc3cncc(C#N)c3)c(CN(C)[C@@H](CCO)C(=O)O)cc2Cl)cccc1-c1cccc(OCCCN2CC[C@@H](O)C2)c1C [Example 4135, N-(5-chloro-2-((5-cyanopyridin-3-yl)methoxy)-4-((3′-(3-((R)-3-hydroxypyrrolidin-1-yl)propoxy)-2,2′-dimethyl-[1,1′-biphenyl]-3-yl)methoxy)benzyl)-N-methyl-L-homoserine] |
| 0.21 to 10 | Cc1c(COc2cc(OCc3cncc(S(C)(=O)=O)c3)c(CN[C@H](CO)C(=O)O)cc2Cl)cccc1-c1cccc(OCCCN2CC[C@@H](O)C2)c1C [Example 1025, (R)-2-((5-chloro-4-((3′-(3-((R)-3-hydroxypyrrolidin-1-yl)propoxy)-2,2′-dimethyl-[1,1′-biphenyl]-3-yl)methoxy)-2-((5-(methylsulfonyl)pyridin-3-yl)methoxy)benzyl)amino)-3-hydroxypropanoic Acid] |
| 0.21 to 10 | Cc1c(COc2cc(OCc3cncc(C#N)c3)c(CN[C@@](C)(CO)C(=O)O)cc2Cl)cccc1-c1cccc(O[C@H](C)CCN2CC[C@@H](O)C2)c1Cl [Example 1524] |
